From US8168656B2, “Indoleacetic acid and indenacetic acid derivatives as therapeutic agents with reduced gastrointestinal toxicity” (Vanderbilt University, priority 2009, dated 2012)
Where two headings read alike, the source gives them in different places.

What was measured:
HCT-116 cells = assay: Cell viability assay (WST-1); format: cell-based; conditions: Homo sapiens
Description: (§1) RKO and HCT-116 cells (human colorectal cancer cell lines) were cultured in microtiter plates (tissue culture grade, 96-well flat) in a final volume of 100 μl culture medium containing 5-8×10^4 cells and the final concentrations of chemicals (1-500 μM). Cells were incubated in a humidified atmosphere for 8-24 hours. To the cultures, 10 μl of cell proliferation reagent, WST-1 (Roche Applied Science, Indianapolis, Ind., United States of America) was added, and reincubated for 1-2 hours. The absorbance of the samples was determined using a microtiter plate reader at a wavelength of 405-450 nm against background control. Reference wavelength was 620 nm. The tetrazolium salt, WST-1 (4-[3-(4-Iodophenyl)-2-(4-nitrophenyl)-2H-5-tetrazolio]-1,3-benzene disulfonate) was metabolized to formazan by the “succinate-tetrazolium reductase” system, which exists in mitochondria and is active only in viable cells. Thus, the formation of formazan (dark yellow color) is proportional to the viable cell numbers.
(§2) The generated data points were used to calculate ED50 values by creating a sigmoidal dose-response curve using non-linear regression. ED50 valued were calculated using the statistical analysis program PRISM® (GraphPad Software, Inc., San Diego, Calif., United States of America).

RKO cells = assay: Cell viability assay (WST-1); format: cell-based; conditions: Homo sapiens
Description: as §1, §2

[1] = concentration that reduces cell viability by 50%, read-out: ED50 HCT-116
[2] = concentration that reduces cell viability by 50%, read-out: ED50 RKO
[3] = second part of Table 9, read-out: ED50 HCT-116
[4] = second part of Table 9, read-out: ED50 RKO

| EC50 (HCT-116 cells; [1]) | EC50 (HCT-116 cells; [3]) | Structure (SMILES) | EC50 (RKO cells; [2]) | EC50 (RKO cells; [4]) |
| --- | --- | --- | --- | --- |
| > 3000 nM |  | CSc1ccc(/C=C2\C=C(CC(=O)Nc3ccccc3)c3cc(F)ccc32)cc1 [Compound 2] | > 3000 nM |  |
| 3900 ± 900 nM |  | CSc1ccc(/C=C2\C=C(CC(=O)NCc3ccccc3)c3cc(F)ccc32)cc1 [Compound 3] | 1100 ± 700 nM |  |
| > 3000 nM |  | CSc1ccc(/C=C2\C=C(CC(=O)NCCc3ccccc3)c3cc(F)ccc32)cc1 [Compound 4] | > 3000 nM |  |
| > 3000 nM |  | CSc1ccc(/C=C2\C=C(CC(=O)NCCCc3ccccc3)c3cc(F)ccc32)cc1 [Compound 5] | > 3000 nM |  |
| > 3000 nM |  | CSc1ccc(/C=C2\C=C(CC(=O)N(C)Cc3ccccc3)c3cc(F)ccc32)cc1 [Compound 6] | > 3000 nM |  |
| > 3000 nM |  | CSc1ccc(/C=C2\C=C(CC(=O)N[C@@H](C)c3ccccc3)c3cc(F)ccc32)cc1 [Compound 7] | > 3000 nM |  |
| > 3000 nM |  | CSc1ccc(/C=C2\C=C(CC(=O)N[C@H](C)c3ccccc3)c3cc(F)ccc32)cc1 [Compound 8] | > 3000 nM |  |
| > 3000 nM |  | CSc1ccc(/C=C2\C=C(CC(=O)NCc3ccncc3)c3cc(F)ccc32)cc1 [Compound 9] | > 3000 nM |  |
| > 3000 nM |  | CSc1ccc(/C=C2\C=C(CC(=O)Nc3ccc(F)cc3Cl)c3cc(F)ccc32)cc1 [Compound 10] | > 3000 nM |  |
| > 3000 nM |  | COc1ccc(NC(=O)CC2=C/C(=C\c3ccc(SC)cc3)c3ccc(F)cc32)cc1 [Compound 11] | > 3000 nM |  |
| > 3000 nM |  | CSc1ccc(/C=C2\C=C(CC(=O)NCc3ccc(N)cc3)c3cc(F)ccc32)cc1 [Compound 12] | 2300 ± 30 nM |  |
| 2080 ± 80 nM |  | CSc1ccc(/C=C2\C=C(CC(=O)NCc3cccc(N)c3)c3cc(F)ccc32)cc1 [Compound 13] | 990 ± 30 nM |  |
| > 3000 nM |  | CSc1ccc(/C=C2\C=C(CC(=O)NCc3ccccc3N)c3cc(F)ccc32)cc1 [Compound 14] | > 3000 nM |  |
| 1200 ± 200 nM |  | CSc1ccc(/C=C2\C=C(CC(=O)NCc3ccc(O)cc3)c3cc(F)ccc32)cc1 [Compound 15] | 100 ± 40 nM |  |
| 1470 ± 30 nM |  | CSc1ccc(/C=C2\C=C(CC(=O)NCc3cccc(O)c3)c3cc(F)ccc32)cc1 [Compound 16] | 830 ± 60 nM |  |
| 1200 ± 100 nM |  | CSc1ccc(/C=C2\C=C(CC(=O)NCc3ccc(C)cc3)c3cc(F)ccc32)cc1 [Compound 17] | 730 ± 60 nM |  |
| > 3000 nM |  | CSc1ccc(/C=C2\C=C(CC(=O)NCc3cccc(C)c3)c3cc(F)ccc32)cc1 [Compound 18] | > 3000 nM |  |
| > 3000 nM |  | CSc1ccc(/C=C2\C=C(CC(=O)NCc3ccccc3C)c3cc(F)ccc32)cc1 [Compound 19] | > 3000 nM |  |
| 800 ± 100 nM |  | CSc1ccc(/C=C2\C=C(CC(=O)NCc3ccc(Cl)cc3)c3cc(F)ccc32)cc1 [Compound 20] | 630 ± 70 nM |  |
| > 3000 nM |  | CSc1ccc(/C=C2\C=C(CC(=O)NCc3cccc(Cl)c3)c3cc(F)ccc32)cc1 [Compound 21] | > 3000 nM |  |

| EC50 (HCT-116 cells; [1]) | EC50 (HCT-116 cells; [3]) | Structure (SMILES) | EC50 (RKO cells; [2]) | EC50 (RKO cells; [4]) |
| --- | --- | --- | --- | --- |
| 1300 ± 200 nM |  | CSc1ccc(/C=C2\C=C(CC(=O)NCc3ccc(Br)cc3)c3cc(F)ccc32)cc1 [Compound 22] | 670 ± 70 nM |  |
| > 3000 nM |  | CSc1ccc(/C=C2\C=C(CC(=O)NCc3cccc(Br)c3)c3cc(F)ccc32)cc1 [Compound 23] | > 3000 nM |  |
| > 3000 nM |  | CSc1ccc(/C=C2\C=C(CC(=O)NCc3ccc(C(F)(F)F)cc3)c3cc(F)ccc32)cc1 [Compound 24] | > 3000 nM |  |
| > 3000 nM |  | CSc1ccc(/C=C2\C=C(CC(=O)NCc3cccc(C(F)(F)F)c3)c3cc(F)ccc32)cc1 [Compound 25] | > 3000 nM |  |
| 2100 ± 700 nM |  | CSc1ccc(/C=C2\C=C(CC(=O)NCc3ccc([N+](=O)[O-])cc3)c3cc(F)ccc32)cc1 [Compound 26] | 540 ± 70 nM |  |
| > 3000 nM |  | CSc1ccc(/C=C2\C=C(CC(=O)NCc3cccc([N+](=O)[O-])c3)c3cc(F)ccc32)cc1 [Compound 27] | > 3000 nM |  |
| > 3000 nM |  | CSc1ccc(/C=C2\C=C(CC(=O)NCc3ccccc3[N+](=O)[O-])c3cc(F)ccc32)cc1 [Compound 28] | > 3000 nM |  |
| > 3000 nM |  | [N-]=[N+]=NCc1ccc(/C=C2\C=C(CC(=O)NCc3ccc(C4(c5ccccc5)CO4)cc3)c3cc(F)ccc32)cc1 (centres unmarked) [Compound 29] | > 3000 nM |  |
| 180 ± 40 nM |  | CSc1ccc(/C=C2\C=C(CC(=O)NCc3ccc(C(=O)c4ccccc4)cc3)c3cc(F)ccc32)cc1 [Compound 30] | 40 ± 20 nM |  |
| > 3000 nM |  | [N-]=[N+]=NCc1ccc(/C=C2\C=C(CC(=O)NCc3ccc(NC(=O)CBr)cc3)c3cc(F)ccc32)cc1 [Compound 31] | > 3000 nM |  |
|  | 6000 ± 1000 nM | C[S+]([O-])c1ccc(/C=C2\C=C(CC(=O)NCc3ccccc3)c3cc(F)ccc32)cc1 (centres unmarked) [Compound 32] |  | 2400 ± 200 nM |
|  | 1200 ± 300 nM | CS(=O)(=O)c1ccc(/C=C2\C=C(CC(=O)NCc3ccccc3)c3cc(F)ccc32)cc1 [Compound 33] |  | 800 ± 100 nM |
|  |  | O=C(CC1=C/C(=C\c2ccccc2)c2ccc(F)cc21)NCc1ccccc1 [Compound 34] |  | 5400 ± 500 nM |
|  | 1000 ± 800 nM | COc1ccc(/C=C2\C=C(CC(=O)NCc3ccccc3)c3cc(F)ccc32)cc1 [Compound 35] |  | 700 ± 100 nM |
|  |  | O=C(O)CC1=C/C(=C\c2ccc(C(=O)O)cc2)c2ccc(F)cc21 [Compound 36] |  | 6400 ± 600 nM |
|  |  | O=C(O)CC1=C/C(=C\c2ccc(Br)cc2)c2ccc(F)cc21 [Compound 37] |  | > 10000 nM |
|  |  | O=C(CC1=C/C(=C\C2CCCCC2)c2ccc(F)cc21)NCc1ccccc1 [Compound 38] |  | 6700 ± 100 nM |
| 449000 ± 97600 nM |  | COc1ccc2c(c1)c(CC(=O)O)c(C)n2C(=O)c1ccc(Cl)cc1 [Indomethacin, indomethacin, reference compound] | 162000 ± 11000 nM |  |
| 109000 ± 10000 nM |  | CSc1ccc(/C=C2/C(C)=C(CC(=O)O)c3cc(F)ccc32)cc1 [Sulindac sulfide, reference compound] | 98200 ± 1400 nM |  |
